Measured values reported in patent publication US20120121591A1 (priority 2009, published 2012).
Where two headings read alike, the source gives them in different places.

Experiments:
Format in all cases: cell-based
[1] = test system: IL-2 secretion from T cells in human whole blood; settings: read-out: WB (IL-2) IC50 (nM, Avg)
[2] = test system: IFN-g secretion from T cells in human whole blood
[3] = biological target: hKv1.3 (Homo sapiens, UniProt P22001); assay: cell-based; settings: Kv1.3 (IWQ) IC50 (nM, Avg)
[4] = read-out: WB (IFNg) IC5- (nM, Avg)
[5] = read-out: WB (IFNg) IC50 (nM, Avg)

Chain of hKv1.3 (P22001 whole entry): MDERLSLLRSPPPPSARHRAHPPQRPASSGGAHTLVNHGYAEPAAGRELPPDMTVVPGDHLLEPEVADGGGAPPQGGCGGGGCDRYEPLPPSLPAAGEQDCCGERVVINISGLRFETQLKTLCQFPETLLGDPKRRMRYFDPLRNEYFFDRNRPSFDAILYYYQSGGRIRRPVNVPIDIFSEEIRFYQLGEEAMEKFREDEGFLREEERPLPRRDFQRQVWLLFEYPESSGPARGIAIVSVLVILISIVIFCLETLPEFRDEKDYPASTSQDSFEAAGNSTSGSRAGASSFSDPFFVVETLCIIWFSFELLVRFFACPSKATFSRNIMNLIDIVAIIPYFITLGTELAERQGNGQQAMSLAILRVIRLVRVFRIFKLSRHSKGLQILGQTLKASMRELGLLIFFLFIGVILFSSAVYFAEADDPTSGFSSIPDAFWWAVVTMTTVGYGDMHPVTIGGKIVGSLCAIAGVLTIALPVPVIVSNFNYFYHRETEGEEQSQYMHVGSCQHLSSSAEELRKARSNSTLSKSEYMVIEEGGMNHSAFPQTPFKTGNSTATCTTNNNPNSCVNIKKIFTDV

Row | Structure (SMILES) | IC50 [1] [nM] | IC50 [2, 4] [nM] | IC50 [3] [nM] | IC50 [2, 5] [nM]
1 | CC[C@H](C)[C@@H]1NC(=O)[C@H]([C@@H](C)O)NC(=O)[C@H](CC(=O)O)NC(=O)[C@H](CCC(=O)O)NC(=O)[C@@H](NC(=O)[C@H](CO)NC(=O)[C@@H](N)CCCNC(=N)N)CSSC[C@@H](C(=O)O)NC(=O)[C@H]([C@@H](C)O)NC(=O)CNC(=O)[C@@H]2CSSC[C@@H]3NC(=O)[C@H](CCC(N)=O)NC(=O)[C@H](Cc4ccccc4)NC(=O)[C@H](C)NC(=O)[C@H]([C@@H](C)O)NC(=O)[C@H](CSSC[C@H](NC(=O)[C@H](Cc4ccccc4)NC(=O)[C@H](CO)NC(=O)[C@H](CC(C)C)NC(=O)[C@H](CCCNC(=N)N)NC(=O)[C@H](Cc4ccc(O)cc4)NC(=O)[C@H](CCCCN)NC(=O)[C@H](CCSC)NC(=O)[C@H](CO)NC(=O)[C@H](Cc4c[nH]cn4)NC(=O)[C@H](CCCCN)NC3=O)C(=O)N[C@@H](CCCNC(=N)N)C(=O)N[C@@H](CCCCN)C(=O)N[C@@H]([C@@H](C)O)C(=O)N2)NC(=O)[C@H](CCCNC(=N)N)NC(=O)[C@H](CO)NC(=O)[C@H](CCCCN)NC(=O)[C@@H]2CCCN2C1=O [[Glu4]ShK] | 0.031 | 0.049 | 0.07 | 
2 | CC[C@H](C)[C@@H]1NC(=O)[C@@H](NC(=O)[C@H](CO)NC(=O)[C@@H](N)CCCNC(=N)N)CSSC[C@@H](C(=O)O)NC(=O)[C@H]([C@@H](C)O)NC(=O)CNC(=O)[C@@H]2CSSC[C@@H]3NC(=O)[C@H](CCC(N)=O)NC(=O)[C@H](Cc4ccccc4)NC(=O)[C@H](C)NC(=O)[C@H]([C@@H](C)O)NC(=O)[C@H](CSSC[C@H](NC(=O)[C@H](Cc4ccccc4)NC(=O)[C@H](CO)NC(=O)[C@H](CC(C)C)NC(=O)[C@H](CCCNC(=N)N)NC(=O)[C@H](Cc4ccc(O)cc4)NC(=O)[C@H](CCCCN)NC(=O)[C@H](CCSC)NC(=O)[C@H](CO)NC(=O)[C@H](Cc4c[nH]cn4)NC(=O)[C@H](CCCCN)NC3=O)C(=O)N[C@@H](CCCNC(=N)N)C(=O)N[C@@H](CCCCN)C(=O)N[C@@H]([C@@H](C)O)C(=O)N2)NC(=O)[C@H](CCCNC(=N)N)NC(=O)[C@H](CO)NC(=O)[C@H](CCCCN)NC(=O)[C@@H]2CCCN2C(=O)[C@H]([C@@H](C)CC)NC(=O)[C@H]([C@@H](C)O)NC(=O)[C@H](CCC(=O)O)NC1=O [[Glu5]ShK] | 16.9 | 24.6 | 3.3 | 
3 | CC[C@H](C)[C@@H]1NC(=O)[C@@H](NC(=O)[C@H](CO)NC(=O)[C@@H](N)CCCNC(=N)N)CSSC[C@@H](C(=O)O)NC(=O)[C@H]([C@@H](C)O)NC(=O)CNC(=O)[C@@H]2CSSC[C@@H]3NC(=O)[C@H](CCC(N)=O)NC(=O)[C@H](Cc4ccccc4)NC(=O)[C@H](C)NC(=O)[C@H]([C@@H](C)O)NC(=O)[C@H](CSSC[C@H](NC(=O)[C@H](Cc4ccccc4)NC(=O)[C@H](CO)NC(=O)[C@H](CC(C)C)NC(=O)[C@H](CCCNC(=N)N)NC(=O)[C@H](Cc4ccc(O)cc4)NC(=O)[C@H](CCCCN)NC(=O)[C@H](CCSC)NC(=O)[C@H](CO)NC(=O)[C@H](Cc4c[nH]cn4)NC(=O)[C@H](CCCCN)NC3=O)C(=O)N[C@@H](CCCNC(=N)N)C(=O)N[C@@H](CCCCN)C(=O)N[C@@H]([C@@H](C)O)C(=O)N2)NC(=O)[C@H](CCCNC(=N)N)NC(=O)[C@H](CO)NC(=O)[C@H](CCCCN)NC(=O)[C@@H]2CCCN2C(=O)[C@H]([C@@H](C)CC)NC(=O)[C@H](CCC(=O)O)NC(=O)[C@H](CC(=O)O)NC1=O [[Glu6]ShK] | 0.073 | 0.109 | 0.17 | 
4 | CC[C@H](C)[C@@H]1NC(=O)[C@@H](NC(=O)[C@H](CO)NC(=O)[C@@H](N)CCCNC(=N)N)CSSC[C@@H](C(=O)O)NC(=O)[C@H]([C@@H](C)O)NC(=O)CNC(=O)[C@@H]2CSSC[C@@H]3NC(=O)[C@H](CCC(N)=O)NC(=O)[C@H](Cc4ccccc4)NC(=O)[C@H](C)NC(=O)[C@H]([C@@H](C)O)NC(=O)[C@H](CSSC[C@H](NC(=O)[C@H](Cc4ccccc4)NC(=O)[C@H](CO)NC(=O)[C@H](CC(C)C)NC(=O)[C@H](CCCNC(=N)N)NC(=O)[C@H](Cc4ccc(O)cc4)NC(=O)[C@H](CCCCN)NC(=O)[C@H](CCSC)NC(=O)[C@H](CO)NC(=O)[C@H](Cc4c[nH]cn4)NC(=O)[C@H](CCCCN)NC3=O)C(=O)N[C@@H](CCCNC(=N)N)C(=O)N[C@@H](CCCCN)C(=O)N[C@@H]([C@@H](C)O)C(=O)N2)NC(=O)[C@H](CCCNC(=N)N)NC(=O)[C@H](CO)NC(=O)[C@H](CCCCN)NC(=O)[C@@H]2CCCN2C(=O)[C@H](CCC(=O)O)NC(=O)[C@H]([C@@H](C)O)NC(=O)[C@H](CC(=O)O)NC1=O [[Glu7]ShK] | 5 | 19.5 | 1.25 | 
5 | CCCC[C@@H]1NC(=O)[C@H](CO)NC(=O)[C@H](Cc2c[nH]cn2)NC(=O)[C@H](CCCCN)NC(=O)[C@@H]2CSSC[C@@H]3NC(=O)[C@H]([C@@H](C)O)NC(=O)[C@H](CCCCN)NC(=O)[C@H](CCCNC(=N)N)NC(=O)[C@H](CSSC[C@H](NC(=O)[C@H](CCCNC(=N)N)NC(=O)[C@H](CO)NC(=O)[C@H](CCC(=O)O)NC(=O)[C@@H]4CCCN4C(=O)[C@H]([C@@H](C)CC)NC(=O)[C@H]([C@@H](C)O)NC(=O)[C@H](CC(=O)O)NC(=O)[C@H]([C@@H](C)CC)NC(=O)[C@@H](NC(=O)[C@H](CO)NC(=O)[C@@H](N)CCCNC(=N)N)CSSC[C@@H](C(N)=O)NC(=O)[C@H]([C@@H](C)O)NC(=O)CNC3=O)C(=O)N[C@@H]([C@@H](C)O)C(=O)N[C@@H](C)C(=O)N[C@@H](Cc3ccccc3)C(=O)N[C@@H](CCCCN)C(=O)N2)NC(=O)[C@H](Cc2ccccc2)NC(=O)[C@H](CO)NC(=O)[C@H](CC(C)C)NC(=O)[C@H](CCCNC(=N)N)NC(=O)[C@H](Cc2ccc(O)cc2)NC(=O)[C@H](CCCCN)NC1=O [[Glu9, Lys16,Nle21]ShK-amide] | 0.257 |  | 0.263 | 0.342
6 | CC[C@H](C)[C@@H]1NC(=O)[C@@H](NC(=O)[C@H](CO)NC(=O)[C@@H](N)CCCNC(=N)N)CSSC[C@@H](C(=O)O)NC(=O)[C@H]([C@@H](C)O)NC(=O)CNC(=O)[C@@H]2CSSC[C@@H]3NC(=O)[C@H](CCC(N)=O)NC(=O)[C@H](Cc4ccccc4)NC(=O)[C@H](C)NC(=O)[C@H]([C@@H](C)O)NC(=O)[C@H](CSSC[C@H](NC(=O)[C@H](Cc4ccccc4)NC(=O)[C@H](CO)NC(=O)[C@H](CC(C)C)NC(=O)[C@H](CCCNC(=N)N)NC(=O)[C@H](Cc4ccc(O)cc4)NC(=O)[C@H](CCCCN)NC(=O)[C@H](CCSC)NC(=O)[C@H](CO)NC(=O)[C@H](Cc4c[nH]cn4)NC(=O)[C@H](CCCCN)NC3=O)C(=O)N[C@@H](CCCNC(=N)N)C(=O)N[C@@H](CCCCN)C(=O)N[C@@H]([C@@H](C)O)C(=O)N2)NC(=O)[C@H](CCCNC(=N)N)NC(=O)[C@H](CO)NC(=O)[C@H](CCC(=O)O)NC(=O)[C@@H]2CCCN2C(=O)[C@H]([C@@H](C)CC)NC(=O)[C@H]([C@@H](C)O)NC(=O)[C@H](CC(=O)O)NC1=O [[Glu9]ShK] | 0.036 | 0.056 | 0.128 | 
7 | CCCC[C@@H]1NC(=O)[C@H](CO)NC(=O)[C@H](Cc2c[nH]cn2)NC(=O)[C@H](CCCCN)NC(=O)[C@@H]2CSSC[C@@H]3NC(=O)[C@H]([C@@H](C)O)NC(=O)[C@H](CCCCN)NC(=O)[C@H](CCCNC(=N)N)NC(=O)[C@H](CSSC[C@H](NC(=O)[C@H](CCCNC(=N)N)NC(=O)[C@H](CCC(=O)O)NC(=O)[C@H](CCCCN)NC(=O)[C@@H]4CCCN4C(=O)[C@H]([C@@H](C)CC)NC(=O)[C@H]([C@@H](C)O)NC(=O)[C@H](CC(=O)O)NC(=O)[C@H]([C@@H](C)CC)NC(=O)[C@@H](NC(=O)[C@H](CO)NC(=O)[C@@H](N)CCCNC(=N)N)CSSC[C@@H](C(N)=O)NC(=O)[C@H]([C@@H](C)O)NC(=O)CNC3=O)C(=O)N[C@@H]([C@@H](C)O)C(=O)N[C@@H](C)C(=O)N[C@@H](Cc3ccccc3)C(=O)N[C@@H](CCCCN)C(=O)N2)NC(=O)[C@H](Cc2ccccc2)NC(=O)[C@H](CO)NC(=O)[C@H](CC(C)C)NC(=O)[C@H](CCCNC(=N)N)NC(=O)[C@H](Cc2ccc(O)cc2)NC(=O)[C@H](CCCCN)NC1=O [[Glu10,Lys16,Nle21]ShK-amide] | 0.776 |  | 0.127 | 1.26
8 | CC[C@H](C)[C@@H]1NC(=O)[C@@H](NC(=O)[C@H](CO)NC(=O)[C@@H](N)CCCNC(=N)N)CSSC[C@@H](C(=O)O)NC(=O)[C@H]([C@@H](C)O)NC(=O)CNC(=O)[C@@H]2CSSC[C@@H]3NC(=O)[C@H](CCC(N)=O)NC(=O)[C@H](Cc4ccccc4)NC(=O)[C@H](C)NC(=O)[C@H]([C@@H](C)O)NC(=O)[C@H](CSSC[C@H](NC(=O)[C@H](Cc4ccccc4)NC(=O)[C@H](CO)NC(=O)[C@H](CC(C)C)NC(=O)[C@H](CCCNC(=N)N)NC(=O)[C@H](Cc4ccc(O)cc4)NC(=O)[C@H](CCCCN)NC(=O)[C@H](CCSC)NC(=O)[C@H](CO)NC(=O)[C@H](Cc4c[nH]cn4)NC(=O)[C@H](CCCCN)NC3=O)C(=O)N[C@@H](CCCNC(=N)N)C(=O)N[C@@H](CCCCN)C(=O)N[C@@H]([C@@H](C)O)C(=O)N2)NC(=O)[C@H](CCCNC(=N)N)NC(=O)[C@H](CCC(=O)O)NC(=O)[C@H](CCCCN)NC(=O)[C@@H]2CCCN2C(=O)[C@H]([C@@H](C)CC)NC(=O)[C@H]([C@@H](C)O)NC(=O)[C@H](CC(=O)O)NC1=O [[Glu10]ShK] | 0.023 | 0.055 | 0.134 | 
9 | CC[C@H](C)[C@@H]1NC(=O)[C@@H](NC(=O)[C@H](CO)NC(=O)[C@@H](N)CCCNC(=N)N)CSSC[C@@H](C(=O)O)NC(=O)[C@H]([C@@H](C)O)NC(=O)CNC(=O)[C@@H]2CSSC[C@@H]3NC(=O)[C@H](CCC(N)=O)NC(=O)[C@H](Cc4ccccc4)NC(=O)[C@H](C)NC(=O)[C@H]([C@@H](C)O)NC(=O)[C@H](CSSC[C@H](NC(=O)[C@H](Cc4ccccc4)NC(=O)[C@H](CO)NC(=O)[C@H](CC(C)C)NC(=O)[C@H](CCCNC(=N)N)NC(=O)[C@H](Cc4ccc(O)cc4)NC(=O)[C@H](CCCCN)NC(=O)[C@H](CCSC)NC(=O)[C@H](CO)NC(=O)[C@H](Cc4c[nH]cn4)NC(=O)[C@H](CCCCN)NC3=O)C(=O)N[C@@H](CCCNC(=N)N)C(=O)N[C@@H](CCCCN)C(=O)N[C@@H]([C@@H](C)O)C(=O)N2)NC(=O)[C@H](CCC(=O)O)NC(=O)[C@H](CO)NC(=O)[C@H](CCCCN)NC(=O)[C@@H]2CCCN2C(=O)[C@H]([C@@H](C)CC)NC(=O)[C@H]([C@@H](C)O)NC(=O)[C@H](CC(=O)O)NC1=O [[Glu11]ShK] | 1.32 | 4.54 | 0.969 | 
